Residue numbers refer to the chain shown, from its start.
Tests used:
[1] = molecular target: T1, ROS-GC1 (rod outer segment guanylate cyclase type 1), full-length recombinant (Bos taurus, UniProt P55203, A1013R/D890A); assay: biochemical
T1 construct: gene GUCY2D
T1 sequence (P55203 57-1110 D890A/A1013R): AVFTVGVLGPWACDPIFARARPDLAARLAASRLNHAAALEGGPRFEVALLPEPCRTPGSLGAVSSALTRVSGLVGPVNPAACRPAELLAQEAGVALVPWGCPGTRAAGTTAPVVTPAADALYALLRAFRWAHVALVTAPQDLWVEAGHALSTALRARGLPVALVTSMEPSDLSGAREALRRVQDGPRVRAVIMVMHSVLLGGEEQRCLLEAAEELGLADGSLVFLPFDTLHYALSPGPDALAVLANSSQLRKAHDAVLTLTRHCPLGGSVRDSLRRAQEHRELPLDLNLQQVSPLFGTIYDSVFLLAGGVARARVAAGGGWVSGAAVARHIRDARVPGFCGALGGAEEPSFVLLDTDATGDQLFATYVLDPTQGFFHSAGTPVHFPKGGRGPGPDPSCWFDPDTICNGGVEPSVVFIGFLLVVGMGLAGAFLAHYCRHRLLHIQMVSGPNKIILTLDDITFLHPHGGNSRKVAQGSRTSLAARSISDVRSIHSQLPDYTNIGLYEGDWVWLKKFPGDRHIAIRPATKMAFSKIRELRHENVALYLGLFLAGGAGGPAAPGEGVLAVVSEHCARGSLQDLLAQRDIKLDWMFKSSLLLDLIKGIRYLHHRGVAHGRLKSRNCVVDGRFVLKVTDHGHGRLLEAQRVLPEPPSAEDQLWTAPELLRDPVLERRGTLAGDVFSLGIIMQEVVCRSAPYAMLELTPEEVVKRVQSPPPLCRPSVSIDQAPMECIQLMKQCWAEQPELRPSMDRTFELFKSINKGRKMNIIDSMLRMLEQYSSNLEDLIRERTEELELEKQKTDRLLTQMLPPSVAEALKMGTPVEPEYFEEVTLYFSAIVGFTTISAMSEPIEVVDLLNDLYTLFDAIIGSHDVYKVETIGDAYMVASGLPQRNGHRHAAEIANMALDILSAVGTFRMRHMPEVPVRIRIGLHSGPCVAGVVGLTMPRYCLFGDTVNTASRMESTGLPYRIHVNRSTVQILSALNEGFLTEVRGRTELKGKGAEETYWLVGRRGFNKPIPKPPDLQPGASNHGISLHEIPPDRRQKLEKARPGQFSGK

[2] = molecular target: T2, ROS-GC1 (rod outer segment guanylate cyclase type 1), full-length recombinant (Bos taurus, UniProt P55203, A1013R); assay: biochemical
T2 construct: gene GUCY2D
T2 sequence (P55203 57-1110 A1013R): T1 sequence (P55203 57-1110 D890A/A1013R) with A834D

O=C(O)O [bicarbonate]
EC50 [1]: ~30 mM
EC50 [2]: 25 mM

Source: paper PMC5461267, “Membrane Guanylate Cyclase catalytic Subdomain: Structure and Linkage with Calcium Sensors and Bicarbonate” (Frontiers in Molecular Neuroscience, 2017)
